The text below walks through data of PMC7482797 (2020).

The ΔTm is the change in melting temperature against a reference sample. As usually defined, the KD is the constant that tells how readily two partners part at equilibrium. Read a high KD as lower affinity.

Assay [1] deals with BCL-2 GQ (DNA, G4) CGGGCGCGGGAGGAATTGGGCGGGAGC
As to the kind of experiment: CD melting. The conditions noted are these: 100 mM KCl; 20 mM PBS, pH 7.4; 2 µM GQ, TGP18 at 1:1 (2 µM).

Assay [2] relates to c-KIT2 GQ (DNA, G4) CGGGCGGGCGCGAGGGAGGGG
Briefly: fluorescence titration, 640 nm. The conditions noted are these: 100 mM KCl or NaCl (so in the source); 20 mM PBS, pH 7.4; 1 µM TGP18; one-site fit.

The subject of assay [3] is TEL22 GQ (DNA, G4) AGGGTTAGGGTTAGGGTTAGGG
Briefly: fluorescence lifetime (TCSPC). The conditions noted are these: qualitative; lifetime 1.6 ns against 0.26 ns free; three-fold excess DNA over titration end point.

Assay [4] concerns BCL-2 GQ (DNA, G4) CGGGCGCGGGAGGAATTGGGCGGGAGC
As to the kind of experiment: fluorescence titration, 640 nm. The conditions noted are these: 100 mM KCl or NaCl (so in the source); 20 mM PBS, pH 7.4; 1 µM TGP18; one-site fit.

For assay [5], the system named is C-MYC GQ (DNA, G4) TGGGGAGGGTGGGGAGGGTGGGGAAGG
As to the kind of experiment: fluorescence titration, 640 nm. The conditions noted are these: 100 mM KCl or NaCl (so in the source); 20 mM PBS, pH 7.4; 1 µM TGP18; one-site fit.

Assay [6] relates to KRAS GQ (DNA, G4) GGGAGGGAGGGAAGGAGGGAGGGAGGGA
As to the kind of experiment: fluorescence titration, 640 nm. The conditions noted are these: 100 mM KCl or NaCl (so in the source); 20 mM PBS, pH 7.4; 1 µM TGP18; one-site fit.

Assay [7] relates to VEGF GQ (DNA, G4) GGGGGCGGGCCGGGGGCGGGGTCCCGGCGGGGCGGAG
As to the kind of experiment: fluorescence titration, 640 nm. The conditions noted are these: 100 mM KCl or NaCl (so in the source); 20 mM PBS, pH 7.4; 1 µM TGP18; one-site fit.

With `CCN(CC)c1ccc2cc(C=Cc3ccc4ccc5ccc(C)nc5c4[n+]3C)c(=O)oc2c1`, the ΔTm in assay [1] turned out to be 8 °C. Further, the KD in assay [2] was 5500 ± 230 nM; in assay [4], 728 ± 34 nM; in assay [5], 1500 ± 190 nM; in assay [6], 1300 ± 130 nM; in assay [7], 2120 ± 350 nM. The binding entry in assay [3] is on record as “yes”.
